Data taken from US10226452B2, “Benzoxazolone derivatives as acid ceramidase inhibitors, and their use as medicaments” (FONDAZIONE ISTITUTO ITALIANO DI TECNOLOGIA, priority 2014, dated 2019).
Entries after “also recorded” stand apart in the source; their conditions may differ.

What was measured:
[1] = system: MAG-hydrolyzing enzymes including MGL, HSL and EL; assay: MAG-hydrolysing activity ex vivo in mice; parameters: species or system mouse; details: 10 mg-kg^−1 intraperitoneal, 3 h after injection
Experimental: Compound of Example 25 was also tested for its ability to inhibit the hydrolytic degradation of diacylglycerols (DAG) and monoacylglycerols (MAG) in live mice. DAG and MAG hydrolysis is catalyzed by multiple serine lipases, including diacylglycerol lipase (DGL), monoacylglycerol lipase (MGL), hormone-sensitive lipase (HSL), and endothelial lipase. Thus, by monitoring the effects of compound of Example 25 on MAG-hydrolysing activity as well as DAG and MAG levels ex vivo, we can gain important insights as to the ability of the compound to interfere with those lipases in a physiologically relevant setting.
Specifically FIG. 8 evidences the effect of Example 25 or vehicle (DMSO) on MGL activity in brain, liver, fat and heart. MAG-hydrolysing activity was measured 3 h after intraperitoneal injection of compound of Example 25 (10 mg-kg-1). Results are expressed as mean±s.e.m. (n=5).
Tissue was homogenized in ice-cold Tris-HCl (50 mM, pH7.5, 10 vol) containing sucrose (0.32 M). Homogenates were centrifuged at 1,000×g for 10 min, and the supernatants (5 μg of protein) were incubated at 37° C. for 30 min in Tris.HCl (50 mM, pH 7.5, 0.5 mL) containing 10 μM oleoylglycerol (Sigma-Aldrich, St. Louis, Mo.). […] The residues were suspended in 100 μL of chloroform/methanol (1:3, v:v) and analyzed by LC-MS.

[2] = system: SW403 cells
From the text: Combinatory index calculation of cell viability data analyzed with CompuSyn Software. The resulting combination index (CI) offers quantitative definition for additive effect (CI=1), synergism (CI<1), and antagonism (CI>1) in drug combinations. Results are expressed as mean±s.e.m. (n=8-16) of three independent experiments.
Finally, the CellTiter-Glo® Luminescent Cell Viability Assay can be used to determine the number of viable cells in culture based on quantitation of the ATP present, which signals the presence of metabolically active cells. Briefly, a volume of CellTiter-Glo® Reagent equal to the volume of cell culture medium present in each well is added to 96-well plates after drug treatment. Contents are mixed for 2 minutes on an orbital shaker to induce cell lysis and plate was incubated at room temperature for 10 minutes to stabilize signal before reading luminescence.
The compounds were added to the cultures once every 24 hours over a period of 72 hours and the effects of the combined treatments were evaluated using CompuSyn Software.

[3] = target: AC (Homo sapiens (Human), UniProt Q13510); assay: AC activity in MeWo human melanoma cells; type: cell-based; details: 25 μM, evident at 30 minutes, lasted up to 3 hours
Experimental: Specifically, FIG. 1 evidences the effects of compound of Example 7 or vehicle (0.1% DMSO in DMEM) on AC activity and ceramide levels in A375 (left panel) or MeWo (right panel) human melanoma cell lines. (A-B) Intact cells were treated with compound of Example 7 (25 μM) or vehicle and AC activity was measured 30 minutes or 3 hours later in cell lysates. (B) Intact cells were exposed to compound of Example 7 (25 μM) for 2 hours or 24 hours and medium chain ceramides (C-D), long chain ceramides (E-F) and dihydroceramides (G-H) were quantified. Results are expressed as mean±s.e.m. (n=3). *p<0.05, **p<0.01, ***p<0.001 vs vehicle, two-way ANOVA followed by Dunnet.
hAC protein preparation (10 μg) was preincubated with inhibitors (final DMSO concentration 1%) in assay buffer (100 mM sodium phosphate, 0.1% Nonidet P-40, 150 mM NaCl, 3 mM DTT, 100 mM sodium citrate, pH 4.5) for 30 min at 37° C. Reactions were started by the addition of 50 μM N-lauroyl ceramide (Nu-Chek Prep, Elysian, Minn.) and carried on for 30 min at 37° C. […] The organic phases were collected, dried under nitrogen and analyzed by UPLC/MS (Acquity, Waters). […]
The [M−H]^− ion was monitored in the selected-ion monitoring mode (m/z values: lauric acid 199, 11-lauroleic acid 197.35). […] Inhibition of AC activity was calculated as reduction of lauric acid in the samples compared to vehicle controls. […]

Sequence of AC (Q13510 22-142): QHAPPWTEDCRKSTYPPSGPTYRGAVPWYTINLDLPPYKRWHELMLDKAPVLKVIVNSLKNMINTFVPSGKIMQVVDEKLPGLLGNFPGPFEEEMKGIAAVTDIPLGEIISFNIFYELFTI
Sequence of AC (Q13510 143-395): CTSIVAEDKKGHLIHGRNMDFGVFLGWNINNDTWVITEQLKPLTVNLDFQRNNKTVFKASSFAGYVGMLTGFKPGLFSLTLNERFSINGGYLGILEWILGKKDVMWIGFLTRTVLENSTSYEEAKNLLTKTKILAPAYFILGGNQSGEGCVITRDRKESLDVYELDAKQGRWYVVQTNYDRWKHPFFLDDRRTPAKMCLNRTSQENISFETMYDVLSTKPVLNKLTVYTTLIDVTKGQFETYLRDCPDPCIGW

Row | SMILES | MAG-hydrolysing activity in brain, liver, fat and heart [1] | interaction with 5-FU on SW403 cell viability (combinatory index analysis) [2] | AC activity [3]
1 | O=C(NCCCCc1ccccc1)n1c(=O)oc2cc(-c3ccc(F)cc3)ccc21 [Example 25, 6-(4-Fluorophenyl)-2-oxo-N-(4-phenylbutyl)-1,3-benzoxazole-3-carboxamide] | did not cause inhibition of MAG-hydrolysing activity; also recorded: no inhibitory activity | acted synergistically with 5-FU | 
2 | O=C(NCCCCc1ccccc1)n1c(=O)oc2cc(Br)ccc21 [Example 7, 6-Bromo-2-oxo-N-(4-phenylbutyl)-1,3-benzoxazole-3-carboxamide] |  |  | reduction in AC activity
